{
  "source": "paper PMC7755165",
  "about": "(Xenobiotica; the fate of foreign compounds in biological …, 2019)",
  "key": {"[1]": {"settings": "cited from earlier work; for half-life: ref Clark et al., 1995"}, "CYP2B6 [2]": {"target": "T1, CYP2B6 (Homo sapiens, UniProt P20813)", "T1 sequence (P20813 1-491)": "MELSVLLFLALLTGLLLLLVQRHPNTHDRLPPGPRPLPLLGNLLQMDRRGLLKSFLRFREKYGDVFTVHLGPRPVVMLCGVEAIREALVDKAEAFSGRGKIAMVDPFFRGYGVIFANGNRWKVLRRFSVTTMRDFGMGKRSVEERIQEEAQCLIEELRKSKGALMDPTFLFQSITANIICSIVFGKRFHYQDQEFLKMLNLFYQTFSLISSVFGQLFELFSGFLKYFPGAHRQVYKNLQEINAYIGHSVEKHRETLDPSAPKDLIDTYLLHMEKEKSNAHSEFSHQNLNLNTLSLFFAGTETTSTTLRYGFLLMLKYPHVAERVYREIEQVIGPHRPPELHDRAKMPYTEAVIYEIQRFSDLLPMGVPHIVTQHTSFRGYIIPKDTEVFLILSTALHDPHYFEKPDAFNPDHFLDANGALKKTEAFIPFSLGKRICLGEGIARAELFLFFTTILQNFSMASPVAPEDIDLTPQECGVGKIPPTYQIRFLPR", "experiment": "in vitro", "settings": "recombinant CYP2B6, pH 7.4"}, "CYP2B6 [3]": {"target": "T1, CYP2B6", "settings": "ref Ramírez et al., (2004); cited from earlier work"}, "in vitro [4]": {"experiment": "in vitro", "settings": "human, pooled human liver microsomes, pH 7.4"}, "recombinant CYP2C19": {"target": "recombinant CYP2C19 (Homo sapiens, UniProt P33261)", "sequence (P33261 whole entry)": "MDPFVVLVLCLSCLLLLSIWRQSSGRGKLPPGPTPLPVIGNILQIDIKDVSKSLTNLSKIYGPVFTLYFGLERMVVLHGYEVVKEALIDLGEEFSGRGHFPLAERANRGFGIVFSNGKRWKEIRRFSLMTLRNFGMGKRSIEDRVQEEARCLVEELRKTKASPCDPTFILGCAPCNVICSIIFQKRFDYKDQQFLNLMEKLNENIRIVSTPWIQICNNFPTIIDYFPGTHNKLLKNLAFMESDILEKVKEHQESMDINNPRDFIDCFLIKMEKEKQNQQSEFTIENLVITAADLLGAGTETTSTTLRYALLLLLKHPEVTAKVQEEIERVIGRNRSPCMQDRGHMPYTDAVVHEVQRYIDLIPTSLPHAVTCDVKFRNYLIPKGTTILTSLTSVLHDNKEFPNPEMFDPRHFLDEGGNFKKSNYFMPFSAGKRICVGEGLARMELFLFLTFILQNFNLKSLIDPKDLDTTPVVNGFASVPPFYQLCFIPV", "settings": "ref Ramírez et al., (2004); cited from earlier work"}, "in vitro [5]": {"experiment": "in vitro", "settings": "human, pooled human liver microsomes"}, "recombinant CYP3A4 [6]": {"target": "T2, recombinant CYP3A4 (Homo sapiens, UniProt P08684)", "T2 sequence (P08684 2-503 limits assumed)": "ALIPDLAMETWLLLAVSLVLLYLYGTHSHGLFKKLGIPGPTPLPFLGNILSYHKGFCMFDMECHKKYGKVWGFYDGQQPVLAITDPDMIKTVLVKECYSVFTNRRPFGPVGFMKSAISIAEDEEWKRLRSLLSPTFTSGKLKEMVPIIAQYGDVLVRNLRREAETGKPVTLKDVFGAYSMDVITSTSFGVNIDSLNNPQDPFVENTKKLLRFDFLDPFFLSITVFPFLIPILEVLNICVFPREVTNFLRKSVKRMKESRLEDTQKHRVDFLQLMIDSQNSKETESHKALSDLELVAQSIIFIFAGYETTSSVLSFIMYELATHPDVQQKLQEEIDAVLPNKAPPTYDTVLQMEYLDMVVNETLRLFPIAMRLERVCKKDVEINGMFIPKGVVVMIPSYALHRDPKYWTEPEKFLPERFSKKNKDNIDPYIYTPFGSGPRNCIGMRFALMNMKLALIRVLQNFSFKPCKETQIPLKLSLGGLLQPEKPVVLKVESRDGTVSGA", "experiment": "Kinetic assay for meperidine N-demethylation by recombinant P450"}, "recombinant CYP3A4 [7]": {"target": "T2, recombinant CYP3A4", "settings": "cited from earlier work"}, "[8]": {"system": "single-donor human liver microsomes", "settings": "donor (CYP2C19*1/*1); (+)-N-3-benzylnirvanol 5 μM; meperidine 10 μM, 10 min"}},
  "note": "Where two headings read alike, the source gives them in different places.",
  "data": [
    {"smiles": "CCOC(=O)C1(c2ccccc2)CCNCC1", "note": "[normeperidine]", "values": [
      {"measurement": "half-life", "setting": "[1]; at therapeutic doses", "value": "14 to 21", "unit": "h"},
      {"measurement": "half-life", "setting": "[1]; patients with renal insufficiency", "value": "exceed 34 hours"}
    ]},
    {"smiles": "CCOC(=O)C1(c2ccccc2)CCN(C)CC1", "note": "[meperidine, Meperidine]", "values": [
      {"measurement": "Km at 10 min", "setting": "CYP2B6 [2]", "value": "262 ± 59", "unit": "µM"},
      {"measurement": "relative P450 contribution for normeperidine formation", "setting": "CYP2B6 [3]", "value": 57, "unit": "%"},
      {"measurement": "Km at 10 min", "setting": "in vitro [4]", "value": "622 ± 63", "unit": "µM"},
      {"measurement": "relative P450 contribution for normeperidine formation", "setting": "recombinant CYP2C19", "value": 15, "unit": "%"},
      {"measurement": "half-life", "setting": "[1]; patients with normal liver function", "value": "2.5 to 4", "unit": "h"},
      {"measurement": "parent compound excreted in urine", "setting": "[1]; ref Burns et al., 1955, Yeh et al., 1981", "value": 5, "unit": "%"},
      {"measurement": "Km", "setting": "in vitro [5]", "value": 1600, "unit": "µM"},
      {"measurement": "Percent Contribution to meperidine N-demethylation", "setting": "recombinant CYP3A4 [6]; Approach 1 (Rowland-Yeo et al. 2004 abundances)", "value": 16, "unit": "%"},
      {"measurement": "Percent Contribution to meperidine N-demethylation", "setting": "recombinant CYP3A4 [6]; Approach 2 (Achour et al. 2014 abundances)", "value": 9, "unit": "%"},
      {"measurement": "Percent Contribution to meperidine N-demethylation", "setting": "recombinant CYP3A4 [6]; Approach 3 (Rodrigues 1999 abundances)", "value": 5, "unit": "%"},
      {"measurement": "estimated percent P450 contribution (fm, P450) for meperidine N-demethylation", "setting": "recombinant CYP3A4 [6]; range over three sets of reported P450 abundances", "value": "5–16%"},
      {"measurement": "relative P450 contribution for normeperidine formation", "setting": "recombinant CYP3A4 [7]; CYP3A4, ref Ramírez et al., (2004)", "value": 28, "unit": "%"},
      {"measurement": "catalytic efficiency for meperidine N-demethylation", "setting": "recombinant CYP3A4 [7]; recombinant CYP3A4, ref Ramirez et al. (2004)", "value": 0.07, "unit": "min⁻¹ µM⁻¹"}
    ]},
    {"smiles": "CCC1(c2ccccc2)NC(=O)N(Cc2ccccc2)C1=O", "note": "(single isomer, unassigned; (+)) [benzylnirvanol, (+)-N-3-benzylnirvanol]", "values": [
      {"measurement": "reduction of normeperidine formation compared to vehicle control", "setting": "[8]", "value": "< 20", "unit": "%"}
    ]}
  ]
}
